# From PubChem BioAssay AID493191 (Broad Institute, 2011)
# Tested on: MALME3 melanoma viability, CellTiter-Glo luminescence, 24 h
# Assay: MALME3 melanoma cell viability loss, dose response, orthogonal assay for MITF inhibitor project, CellTiter-Glo, cherry-picked (AID 493191)
row,SMILES,AC50 [µM]
1,Oc1c(CN2CCCCC2)cc(COCc2ccccc2)c2cccnc12,10.4
2,Cc1nc2ccccn2c1C(=O)N/N=C/c1ccc([N+](=O)[O-])o1,34
3,Cc1ccc(-n2cc(CNCCCn3ccnc3C)c(-c3ccc(F)cc3)n2)cc1,15.8
4,O=c1c(Cl)c2oc3ccccc3nc-2c2ccccc12,14.3
5,O=C1c2cc([N+](=O)[O-])cc3cc([N+](=O)[O-])cc(c23)C(=O)N1c1ccccn1,21.9
6,CCOCCCNC(=O)/C(C#N)=C/c1ccc([N+](=O)[O-])o1,12.6
7,O=C(Nc1ccc(N2CCCC2)c(Cl)c1)c1ccc([N+](=O)[O-])o1,11.1
8,Cc1cc(Br)ccc1NC(=O)CNC(=O)Cn1ncc(Cl)c(Cl)c1=O,5.54
9,O=C(N/N=C/c1ccc([N+](=O)[O-])o1)c1ccc(O)cc1,10.9
10,CCN(CC)S(=O)(=O)c1ccc(NC(=O)c2cccnc2Cl)c(NC(=O)c2cccnc2Cl)c1,25.6
11,COc1ccc(C(=O)/C=C/C(=O)N(CC(=O)NC2CCCCC2)CC2CCCO2)c(O)c1 (stereo not given),4.8
12,O=C(N/N=C/c1ccc([N+](=O)[O-])s1)c1ccccc1Br,26.9
13,COC(=O)CCS(=O)(=O)c1nc(-c2ccccc2)cc(C(F)(F)F)n1,14.9
14,CCN(CC)CCCNC1=C(Cl)C(=O)c2ccccc2C1=O,5.64
15,Cc1cc(NC(=O)c2cncc(Br)c2)ccc1NC(=O)c1cc2ccccc2o1,17
16,O=C(Nc1ccc(S(=O)(=O)NC2=NCCCCC2)cc1)c1ccc([N+](=O)[O-])s1,18.4
17,N=c1n(CC(=O)c2ccc([N+](=O)[O-])cc2)c2ccccc2n1Cc1ccccc1,25.4
18,CS(=O)(=O)N1CCN(c2ccc(NC(=O)c3ccc([N+](=O)[O-])o3)cc2)CC1,16.7
19,O=C(Cn1ncc(Cl)c(Cl)c1=O)NCC1CCCCC1,9.94
20,O=C(/C=C/c1cccc([N+](=O)[O-])c1)c1cccs1,33.1
21,CCOC(=O)c1c(C)oc2c1C(=O)c1ccccc1C2=O,7.25
22,COCCN(CC(=O)NC1CCCCC1)C(=O)/C=C/C(=O)c1ccc(OC)cc1O,6.68

row,SMILES,AC50 [µM]
1,COc1ccc2[nH]cc(C(=O)CCl)c2c1,15.1
2,CC(=O)c1c(C)oc2c1C(=O)c1ccccc1C2=O,21.2
3,COc1ccc(-n2c(C)cc(C(=O)CCl)c2C)cc1,19.3
4,COc1ccc(C[C@H]2CN3C(=NC[C@@H]3C(C)C)N2CCNC(=O)c2ccc(C)c(Br)c2)cc1,27.1
5,O=C(CCl)N1N=C(c2ccco2)CC1c1cccs1 (stereo not given),23
6,Cc1ccc(C(C)C)c(OCc2nn(CC(=O)c3ccc(OC(F)F)cc3)c3[n+]2CCCCC3)c1,24.2
7,Cc1cc(Sc2ncnc(N)c2[N+](=O)[O-])ncn1,34
8,c1ccc(CSc2nnc(-c3ccco3)n2Cc2ccco2)cc1,26.4
9,CC1(C)Cc2ccccc2C2=NNC(=O)C2=N1,7
10,N=c1n(CC(=O)c2ccc([N+](=O)[O-])cc2)c2ccccc2n1Cc1ccc(Cl)cc1,17.2
11,COc1cc(/C=N/NC(N)=O)c(Br)cc1OCC(=O)Nc1ccccc1C,29.4
12,CC(NC(=O)C12CC3CC(CC(C3)C1)C2)C(=O)NN=Cc1ccc([N+](=O)[O-])o1 (stereo not given),26.9
13,Nc1nc2ccccc2n1/N=C/c1ccc([N+](=O)[O-])s1,16.3
14,CN(C)CC1CC/C(=C\c2ccc(O)cc2)C1=O (stereo not given),25.9
15,Cc1ccc(C)c(C(=O)Cn2ncc(Cl)c(Cl)c2=O)c1,16
16,CCC(=O)N1CCN(c2ccc(NC(=O)c3ccc([N+](=O)[O-])o3)cc2)CC1,12.7
17,CN(C)CCNC(=O)/C(=C/c1ccc(-c2ccc(Cl)cc2Cl)o1)NC(=O)c1ccccc1,18
18,COc1cc2c(cc1OC)C(c1ccccc1)N(C(=O)CCl)CC2 (stereo not given),18
19,CCN(Cc1ccccc1)c1ccc(/C=N/N=C(N)N)cc1,24.4
20,O=C1NC2c3c(I)sc(I)c3C(=O)C2O1 (stereo not given),16.6
21,O=C1C(Cl)=C(Nc2ccccc2)C(=O)c2ccccc21,5.66
22,c1ccc2cc3c(NCCN4CCOCC4)ccnc3cc2c1,4.49

row,SMILES,AC50 [µM]
1,CN(C)CCCN(C(=O)CCc1ccccc1)c1nc2ccc(Br)cc2s1,19.2
2,Cc1cccc(NC2=C(NC(=O)c3ccccc3)C(=O)c3ccccc3C2=O)c1,25.3
3,Cc1ccc(NC(=O)CCl)cc1S(=O)(=O)N1CCCCCC1,18.1
4,CCN1/C(=C/c2cc[n+](C)cc2)C=Cc2cc(C)ccc21,16.9
5,COc1ccc(S(=O)(=O)N2CCCCC2)cc1NC(=O)c1ccc([N+](=O)[O-])o1,14.3
6,Cc1ccc2[nH]c(=O)c(CN(CCCN(C)C)C(=O)Nc3cccc(Cl)c3)cc2c1,24.9
7,C=CCn1c(C)cc(C2=NNC(=NCC)SC2)c1C,17.6
8,Cc1cc(C)cc(OCC(=O)N/N=C/c2ccc([N+](=O)[O-])o2)c1,22.9
9,Cc1ccccc1OCc1n(CC(=O)OC2CC(C)CCC2C(C)C)c2ccccc2[n+]1C (stereo not given),9.18
10,O=C1C=C(N(CCO)Cc2ccccc2)c2ccccc2C1=O,16
11,COc1ccc(-c2cc(-c3ccccc3)c(C#N)c(S(C)=O)n2)cc1 (stereo not given),23.8
12,Nc1c(N(CCC2=CCCCC2)C(=O)COc2ccc(F)cc2)c(=O)[nH]c(=O)n1Cc1ccccc1,15.8
13,Cn1nnnc1Sc1ncnc2scc(-c3ccc(C#N)cc3)c12,28.5
14,CCOc1ccc(-c2ccc(SC)nn2)cc1,26.5
15,CNC(=O)COC(=O)c1ccccc1C(=O)c1ccc(Cl)c([N+](=O)[O-])c1,23.8
16,Cc1ccc(-c2nc(C(=O)NCCCN(C)C)cc3c2[nH]c2ccccc23)cc1,31.1
17,OC(CNCC(c1ccc(Cl)cc1Cl)c1c[nH]c2ccccc12)c1ccccc1 (stereo not given),19.1
18,O=C(Cc1ccc2c(c1)OCO2)NN=Cc1ccc([N+](=O)[O-])o1,19.1
19,COc1ccc(C(=O)/C=C/C(=O)N(CC(=O)NC2CCCCC2)Cc2ccccc2OC)c(O)c1,4.63
20,O=[N+]([O-])c1ccc(/C=N/N=C/c2ccc([N+](=O)[O-])o2)o1,12.9
21,C=Cc1ncc(OC)c2c1[nH]c1ccccc12,31.5
22,Cc1ccc(NC(=O)CN(C)C(=O)Cn2ncc(Cl)c(Cl)c2=O)cc1,8.81

row,SMILES,AC50 [µM]
1,Cn1cc([N+](=O)[O-])c(C(=O)Nc2nc(-c3ccc(Cl)cc3)cs2)n1,26.5
2,CCCCN1C=CC(=C2C(=O)c3ccccc3C2=O)C=C1,27.3
3,Cc1ccc2nc(N(CCCN(C)C)C(=O)c3ccc4c(c3)CCCC4)sc2c1,21.6
4,CCCNC(=O)COC(=O)c1ccccc1C(=O)c1ccc(Cl)c([N+](=O)[O-])c1,16.3
5,COC1=C(Nc2ccccc2)C(=O)c2ccccc2C1=O,22
6,Cc1cc(C)cc(NC(=O)c2ccc([N+](=O)[O-])o2)c1,17.9
7,COc1ccc(Oc2cc(NC(=O)c3nn(C)cc3[N+](=O)[O-])cc([N+](=O)[O-])c2)cc1,17.7
8,Cc1ccccc1OCC(=O)N/N=C/c1ccc([N+](=O)[O-])o1,26.3
9,CCN(CC)S(=O)(=O)c1ccc(N2CCCC2)c(NC(=O)c2ccc([N+](=O)[O-])o2)c1,19.5
10,CCc1ccc(NC2=CC(=O)C(=O)c3ccccc32)cc1,6.91
11,S=C=Nc1cccc(C2(N3CCCCC3)CCCCC2)c1,26
12,O=C1C(Cl)=C(N2CCN(c3ccccc3[N+](=O)[O-])CC2)C(=O)c2ccccc21,18.2
13,O=C(COC(=O)c1ccccc1C(=O)c1ccc(Cl)c([N+](=O)[O-])c1)NC1CC1,15.6
14,COc1cc(NC(=O)c2[nH]cnc2C(N)=O)cc(C(=O)Nc2cccc(C(F)(F)F)c2)c1,11.2
15,O=C(CS(=O)c1ccc(C(F)(F)F)cc1[N+](=O)[O-])Oc1ccccc1 (stereo not given),20.7
16,O=C(COc1ccc(Cl)cc1Cl)Nc1ccccn1,14.5
17,CCN1CCN(C2=C(NS(=O)(=O)c3ccc(C)cc3)C(=O)c3ccccc3C2=O)CC1,11.9
18,OCCNc1c2ccccc2nc2c(F)c(F)c(F)c(F)c12,15.1
19,CCOc1ccc2nc(NC3=NC(c4ccc(OC)cc4)CC(=O)N3)nc(C)c2c1 (stereo not given),24.6
20,COc1cccc2sc(N3CCN(C(=O)c4ccc([N+](=O)[O-])o4)CC3)nc12,23.4
21,CCOc1c(Br)cc(CNC2CCCCCCC2)cc1OC,27.6
22,CC1CCC(C(C)C)C(OC(=O)Cn2c(-c3ccccc3)[n+](C)c3ccccc32)C1 (stereo not given),9.63

row,SMILES,AC50 [µM]
1,CCCCn1c(=N)n(CC(=O)c2ccc(Br)s2)c2ccccc21,33.2
2,COc1cc(NC(=O)c2ccc([N+](=O)[O-])o2)ccc1NC(=O)c1cccs1,13.1
3,O=C(NCC1CCCCC1)C1(CC2CC(c3cccc(Br)c3)=NO2)CCNCC1 (stereo not given),24.4
4,Cc1ccccc1C(=O)N/N=C/c1ccc([N+](=O)[O-])s1,30.9
5,COc1ccc(S(=O)(=O)N(C(C)=O)c2ccc(OC(C)=O)c3ccccc23)cc1[N+](=O)[O-],18.1
6,Cc1cc(C)c2sc(N(CCCN(C)C)C(=O)COc3ccc(Cl)cc3)nc2c1,32.7
7,CC1CCN(CC(CS(=O)(=O)c2ccc([N+](=O)[O-])cc2)N2CCC(C)CC2)CC1 (stereo not given),18.9
8,Cc1cc(C(C)(C)C)cc(C)c1Cn1c2[n+](c3ccc(C(F)(F)F)cc31)CCCCC2,24.6
9,N=c1n(Cc2ccc(Cl)cc2)c2ccccc2n1CC(O)COc1ccccc1 (stereo not given),14.8
10,N#CC(C#N)=C1C=CC=CN1/C(=C\c1ccco1)C(=O)c1ccc(Br)cc1,24.6
11,O=C(c1ccccc1)c1cc(Cl)ccc1N1C(=O)C=CC1=O,9.06
12,COc1ccc(C(=O)/C(C#N)=N/Nc2ccc([N+](=O)[O-])cc2)cc1,16
13,O=C(COc1ccccc1)N/N=C/c1ccc([N+](=O)[O-])o1,18.6
14,O=C(CCl)N(c1ccccc1)C1CCCCC1,20.1
15,CCN(CC)CCNC(=O)c1c(C)n(-c2ccccc2)c2cc(Br)c(OC)cc12,18.9
16,CCc1cc[n+](C2=C([O-])c3ccccc3C(=O)/C2=N\S(=O)(=O)c2cccs2)cc1,4.51
17,O=C(Nc1ccccc1N1CCOCC1)c1ccc([N+](=O)[O-])s1,30.9
18,CN(C)CCCNC(=O)/C(=C\c1ccc(-c2ccc(Br)cc2)o1)NC(=O)c1ccccc1,16.3
19,N=c1n(CCN2CCCC2)c2ccccc2n1CC(O)c1ccc(Cl)c(Cl)c1 (stereo not given),22.5
20,CN1CCN(c2ccc(NC(=O)c3ccc([N+](=O)[O-])o3)cc2Cl)CC1,21.3
21,COc1ccc(CNCCC(c2ccc(F)cc2)c2ccc(OC)cc2)cc1 (stereo not given),22
22,CCN1CCN(c2ccc(S(=O)(=O)N3CCCCC3)cc2NC(=O)/C=C/c2cccc(OC)c2OC)CC1,29.7
